Test results: patent publication US5409934A, “Xanthine derivatives” (priority 1990, dated 1995)

Columns and labels:
PDE (IV) = assay: Inhibition of phosphodiesterase PDE IV (cAMP-specific), boronate column method; assay type: biochemical, guinea-pig; details: cAMP as substrate, 37° C., pH 7.5; read-out: Inhibition of PDE expressed as IC50, PDE (IV)
Procedure: (§1) The Ca^2+ /calmodulin-stimulated PDE (PDE I, see Table 1 and Beavo and Reifsynder (1990) for nomenclature) was prepared from bovine cardiac ventricle. Following chromatography on a Mono Q column, the fractions showing stimulation of PDE activity by CA^2+ and calmodulin were pooled and further purified on a calmodulin-affinity column. […] Initial chromatography on a 20 ml Mono Q column resolved PDE III from a peak that contained both PDE II and PDE IV. The latter were separated by a cGMP-affinity column. The resolved PDEs were separately rechromatographed on a 1 ml Mono Q column. cGMP-selective PDE (PDE V) was obtained from porcine lung using chromatography on DEAE-cellulose and Mono Q columns; a calmodulin-affinity column was used to remove residual PDE I activity.
PDE activity was assayed by the boronate column method as previously described (Reeves et al., 1987). The enzymes were assayed by incubation at 37° C. for 4-30 min in 50 mM Tris, 5 mM MgCl2, pH 7.5 with ^3 H-labelled cyclic nucleotide (4×105 disintegrations min^-1) and ^14 C-labelled nucleotide 5'-monophosphate (3×10^3 disintegrations min^-1). The assay was stopped by boiling, and the ^3 H-labelled 5'-monophosphate product separated from substrate on boronate columns. The reaction mixture was diluted with 0.5 mL 100 mM HEPES [N-(2-hydroxyethyl)piperazine-N ^1 -2-ethanesulfonic acid], 100 mM NaCl, pH 8.5, and applied to the column. The column was extensively washed with the same buffer, and the 5'-nucleotide eluted with 6mL of 0.25M acetic acid.

PDE (V) = PDE (V) (Sus scrofa, UniProt A0A287B475); assay: Inhibition of phosphodiesterase PDE V (cGMP-specific), boronate column method; assay type: biochemical, porcine; details: 37° C., pH 7.5; read-out: Inhibition of PDE expressed as IC50, PDE (V)
Procedure: The latter were separated by a cGMP-affinity column. The resolved PDEs were separately rechromatographed on a 1 ml Mono Q column. cGMP-selective PDE (PDE V) was obtained from porcine lung using chromatography on DEAE-cellulose and Mono Q columns; a calmodulin-affinity column was used to remove residual PDE I activity. PDEV This isoenzyme had high affinity for cGMP. […] PDE activity was assayed by the boronate column method as previously described (Reeves et al., 1987). The enzymes were assayed by incubation at 37° C. for 4-30 min in 50 mM Tris, 5 mM MgCl2, pH 7.5 with ^3 H-labelled cyclic nucleotide (4×105 disintegrations min^-1) and ^14 C-labelled nucleotide 5'-monophosphate (3×10^3 disintegrations min^-1). The assay was stopped by boiling, and the ^3 H-labelled 5'-monophosphate product separated from substrate on boronate columns. […] The column was extensively washed with the same buffer, and the 5'-nucleotide eluted with 6mL of 0.25M acetic acid.

blood eosinophilia = assay: Sephadex induced blood eosinophilia in the rat; assay type: in vivo, Male Charles River Sprague Dawley rats; details: 30 min before each Sephadex injection, n = 6
Procedure: Induction of blood eosinonhilia and the effects of drugs.
Male Charles River Sprague Dawley rats weighing between 270 to 400 g were used.
The method used was a modification of that described by Laycock et al (Int. Arch. Appl. Immunol, (1986). 81, 363).
Sephadex G200, particle size 40 to 120 micron, was suspended in isotonic saline at 0.5 mg/ml, and stored for 48 h at 4° C. 1 ml of the suspension was given intravenously to rats on days 0, 2 and 5. The test compound was given before the Sephadex on each occasion, with a contact time expected to give maximum activity at the time of the Sephadex administration. Blood was taken from the tail vein of the rats on day 7 for the determination of total and differential leucocyte counts.
A control group of at least 6 animals was included each time a compound was evaluated. The control group received Sephadex and the vehicle without test compound. The results in the drug treated animals were compared with the control group.
[…] of blood, taken from the tail vein of the rats, were added to 10 ml of Isoton II and, within 30rain, Zapoglobin (3 drops) was added, to lyse the erythrocytes. Five minutes later the total cell count was determined using a Coulter Counter Model DN. […] A minimum of 400 cells were counted on each slide.
Probability values were calculated using the Student's t test. […]

[1] = tested on: Ca^2+ /calmodulin-stimulated PDE (PDE I); assay: Kinetic properties of phosphodiesterase isoenzyme I; assay type: biochemical, bovine; details: substrate of PDE I
Procedure: as §1, with “Following” for “The Ca^2+ /calmodulin-stimulated PDE (PDE I, see Table 1 and Beavo and Reifsynder (1990) for nomenclature) was prepared from bovine cardiac ventricle. Following”
(§2) The assay was stopped by boiling, and the ^3 H-labelled 5'-monophosphate product separated from substrate on boronate columns. The reaction mixture was diluted with 0.5 mL 100 mM HEPES [N-(2-hydroxyethyl)piperazine-N ^1 -2-ethanesulfonic acid], 100 mM NaCl, pH 8.5, and applied to the column. The column was extensively washed with the same buffer, and the 5'-nucleotide eluted with 6mL of 0.25M acetic acid.

[2] = tested on: cGMP-stimulated PDE (PDE II); assay: Kinetic properties of phosphodiesterase isoenzyme II; assay type: biochemical, guinea-pig; details: substrate of PDE II; enzyme displayed positive cooperativity
Procedure: as §1, with “Following” for “The Ca^2+ /calmodulin-stimulated PDE (PDE I, see Table 1 and Beavo and Reifsynder (1990) for nomenclature) was prepared from bovine cardiac ventricle. Following”
as §2

[3] = tested on: cGMP-inhibited PDE (PDE III); assay: Kinetic properties of phosphodiesterase isoenzyme III; assay type: biochemical, guinea-pig; details: substrate of PDE III
Procedure: as §1, with “Following” for “The Ca^2+ /calmodulin-stimulated PDE (PDE I, see Table 1 and Beavo and Reifsynder (1990) for nomenclature) was prepared from bovine cardiac ventricle. Following”
as §2

[4] = tested on: cAMP-specific PDE (PDE IV); assay: Kinetic properties of phosphodiesterase isoenzyme IV; assay type: biochemical, guinea-pig; details: substrate of PDE IV, class symbol
Procedure: as §1, with “Following” for “The Ca^2+ /calmodulin-stimulated PDE (PDE I, see Table 1 and Beavo and Reifsynder (1990) for nomenclature) was prepared from bovine cardiac ventricle. Following”
as §2

[5] = tested on: cGMP-specific PDE (PDE V); assay: Kinetic properties of phosphodiesterase isoenzyme V; assay type: biochemical, porcine; details: substrate of PDE V
Procedure: as §1, with “Following” for “The Ca^2+ /calmodulin-stimulated PDE (PDE I, see Table 1 and Beavo and Reifsynder (1990) for nomenclature) was prepared from bovine cardiac ventricle. Following”
PDEV This isoenzyme had high affinity for cGMP.
as §2

| SMILES | IC50 (PDE (IV)) [µM] | IC50 (PDE (V)) [µM] | further results |
| --- | --- | --- | --- |
| Nc1nc2c(c(=O)n(CC3CC3)c(=O)n2CC2CC2)n1S(=O)(=O)c1ccccc1 [Example 1, 8-Amino-7-benzenesulphonyl-1,3-di(cyclopropylmethyl)xanthine] | 3 | 4 |  |
| COc1ccc(S(=O)(=O)n2c(N)nc3c2c(=O)n(CC2CC2)c(=O)n3CC2CC2)cc1 [Example 2, 8-Amino-1,3-di(cyclopropylmethyl)-7-(4-methoxybenzenesulphonyl)xanthine] | 3 | 0.4 | Eosinophilia, % of Control Mean ± SEM (blood eosinophilia; 20 mg/kg orally, *p < 0.05): 62 ± 7 % of Control; Eosinophilia, % of Control Mean ± SEM (blood eosinophilia; 50 mg/kg orally, **p < 0.01): 51 ± 7 % of Control |
| COc1ccc(S(=O)(=O)n2c(N)nc3c2c(=O)n(CC2CC2)c(=O)n3CC2CC2)cc1OC [Example 3, 8-Amino-1,3-di-(cyclopropylmethyl)-7-(3,4-dimethoxy-benzenesulphonyl)xanthine] | 4 | 0.2 |  |
| COc1ccc(S(=O)(=O)n2c(Cl)nc3c2c(=O)n(CC2CC2)c(=O)n3CC2CC2)cc1 [Example 7, 8-Chloro-1,3-di(cyclopropylmethyl)-7-(4-methoxybenzenesulphonyl)xanthine] | 11 | > 100 |  |
| Nc1nc2c(c(=O)n(CC3CC3)c(=O)n2CC2CC2)n1S(=O)(=O)c1ccc(Cl)cc1 [Example 9, 8-Amino-1,3-di(cylcopropylmethyl)-7-(4-chlorobenzenesulphonyl)xanthine] | 4 |  |  |
| COc1ccc(Cn2c(N(S(=O)(=O)c3ccccc3)S(=O)(=O)c3ccccc3)nc3c2c(=O)n(CC2CC2)c(=O)n3CC2CC2)cc1 [Example 23, 1,3-Di(cyclopropylmethyl)-8-di(benzenesulphonyl)amino-7-(4-methoxy-benzyl)xanthine] | > 100 | 7 |  |
| COc1ccc(S(=O)(=O)Nc2nc3c(c(=O)n(CC4CC4)c(=O)n3CC3CC3)n2Cc2cc(OC)c(OC)c(OC)c2)cc1 [Example 25, 1,3-Di(cyclopropylmethyl)-8-(4-methoxybenzenesulphonamido)-7-(3,4,5-trimethoxybenzyl)xanthine] | > 100 |  |  |
| Nc1nc2c(ncn2[C@@H]2O[C@@H]3COP(=O)(O)O[C@H]3[C@H]2O)c(=O)[nH]1 [cGMP] |  |  | Km [1]: 5 µM; Km [2]: 14 µM; Km [3]: 0.1 µM; Km [4]: > 100 µM; Km [5]: 1 µM |
